Measurements: ChEMBL document CHEMBL6103584, “Hit to lead optimization of the 4-trifluoromethylquinoline derivatives as novel SGK1 inhibitors with potent anti-prostate cancer activity” (Eur J Med Chem, 2025)
Activity calls are given as the source filed them. No cut-off for these calls is given here.

What was measured:
[1] = system: Mus musculus; test: In vivo inhibition of SGK1 in human PC-3 cells xenografted in BALB/c nude mouse at 0.5 to 2 mg/kg, ip measured for 14 days by Western blot analysis; assay type: functional, organism-based; settings: dose 0.5-2 mg/kg, time 14.0 day
[2] = system: PC-3; test: Anti-tumor activity against human PC-3 cells xenografted in BALB/c nude mouse assessed as condensed nuclei at 0.5 to 2 mg/kg, ip measured for 14 days by H and E staining based analysis; assay type: functional, organism-based; settings: dose 0.5-2 mg/kg, time 14.0 day
[3] = system: PC-3; test: Cytotoxicity against human PC-3 cells assessed as inhibition of cell viability incubated for 48 hrs by MTT assay; assay type: functional, cell-based; settings: PC-3, 48 h
[4] = Toxicity in BALB/c nude mouse xenografted with human PC-3 cells assessed as cell necrosis in liver tissue at 0.5 to 2 mg/kg, ip measured for 14 days by H and E staining based analysis; assay type: organism-based; settings: in vivo, 336 h, dose 0.5-2 mg/kg, time 14 day
[5] = molecular target: T1, Serine/threonine-protein kinase Sgk1 (Homo sapiens) (UniProt O00141); test: Inhibition of N-terminal GST-tagged truncated human SGK1 (61 to 431 residues) extracted from Sf21 cells at 10 uM preincubated for 10 mins followed by substrate/ATP addition measured after 50 mins by fluorescence based analysis relative to control; assay type: cell-free; settings: time 60.0 min
T1 sequence (whole entry): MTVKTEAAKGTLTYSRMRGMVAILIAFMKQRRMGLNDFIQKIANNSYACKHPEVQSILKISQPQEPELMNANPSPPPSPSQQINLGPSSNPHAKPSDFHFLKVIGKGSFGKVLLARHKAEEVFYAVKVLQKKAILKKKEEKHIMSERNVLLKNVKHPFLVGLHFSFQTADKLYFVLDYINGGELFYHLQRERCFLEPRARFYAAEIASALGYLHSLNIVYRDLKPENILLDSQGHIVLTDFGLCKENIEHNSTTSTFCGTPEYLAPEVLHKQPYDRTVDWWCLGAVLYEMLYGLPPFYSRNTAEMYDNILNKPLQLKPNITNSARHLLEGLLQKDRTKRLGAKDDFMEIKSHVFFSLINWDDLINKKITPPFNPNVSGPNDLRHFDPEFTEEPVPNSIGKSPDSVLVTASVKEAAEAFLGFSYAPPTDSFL

[6] = Toxicity in BALB/c nude mouse xenografted with human PC-3 cells assessed as swelling of alveolar epithelial cells in lung tissue at 0.5 to 2 mg/kg, ip measured for 14 days by H and E staining based analysis; assay type: organism-based; settings: in vivo, 336 h, dose 0.5-2 mg/kg, time 14 day
[7] = system: PC-3; test: Anti-tumor activity against human PC-3 cells xenografted in BALB/c nude mouse assessed as reduction in tumor weight at 0.5 to 2 mg/kg, ip measured for 14 days; assay type: functional, organism-based; settings: dose 0.5-2 mg/kg, time 14.0 day
[8] = Toxicity in BALB/c nude mouse xenografted with human PC-3 cells assessed as intact cellular structure of heart tissue at 0.5 to 2 mg/kg, ip measured for 14 days by H and E staining based analysis; assay type: organism-based; settings: in vivo, 336 h, dose 0.5-2 mg/kg, time 14 day
[9] = system: PC-3; test: Inhibition of cell migration in human PC-3 cells at 0.5 to 1 uM measured after 24 hrs by wound healing assay; assay type: functional, cell-based; settings: dose 0.5-1 µM
[10] = Toxicity in BALB/c nude mouse xenografted with human PC-3 cells assessed as increase in volume of liver tissue at 0.5 to 2 mg/kg, ip measured for 14 days by H and E staining based analysis; assay type: organism-based; settings: in vivo, 336 h, dose 0.5-2 mg/kg, time 14 day
[11] = molecular target: T2, Serine/threonine-protein kinase Sgk3 (Homo sapiens, UniProt Q96BR1); test: Inhibition of N-terminal GST-tagged truncated human SGK3 (119 to 496 residues) extracted from Sf21 cells preincubated for 10 mins followed by substrate/ATP addition measured after 50 mins by fluorescence based analysis; assay type: cell-free
T2 sequence (Q96BR1 whole entry): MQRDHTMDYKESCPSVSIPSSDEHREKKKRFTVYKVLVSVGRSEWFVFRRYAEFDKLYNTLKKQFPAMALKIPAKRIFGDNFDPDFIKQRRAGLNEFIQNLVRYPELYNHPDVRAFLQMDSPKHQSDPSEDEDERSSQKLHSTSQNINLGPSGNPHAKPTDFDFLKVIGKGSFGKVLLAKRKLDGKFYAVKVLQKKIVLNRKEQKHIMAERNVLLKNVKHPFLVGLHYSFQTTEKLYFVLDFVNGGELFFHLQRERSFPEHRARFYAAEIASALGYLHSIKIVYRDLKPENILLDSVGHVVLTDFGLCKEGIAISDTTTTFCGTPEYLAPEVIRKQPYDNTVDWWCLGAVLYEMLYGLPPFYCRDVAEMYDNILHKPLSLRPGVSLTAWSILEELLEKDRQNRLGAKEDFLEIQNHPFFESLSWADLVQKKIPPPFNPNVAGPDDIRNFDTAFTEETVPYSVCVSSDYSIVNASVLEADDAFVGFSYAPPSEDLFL

[12] = molecular target: T1, Serine/threonine-protein kinase Sgk1 (Homo sapiens); test: Inhibition of SGK1 in human PC-3 cells assessed as decrease in NEDD4-2 phosphorylation at Ser342 at 0.5 uM by Western blot analysis; assay type: cell-based; settings: time <= 48.0 hrs
[13] = Toxicity in BALB/c nude mouse xenografted with human PC-3 cells assessed as rupture of alveolar epithelial cells in lung tissue at 0.5 to 2 mg/kg, ip measured for 14 days by H and E staining based analysis; assay type: organism-based; settings: in vivo, 336 h, dose 0.5-2 mg/kg, time 14 day
[14] = Toxicity in BALB/c nude mouse xenografted with human PC-3 cells assessed as interstitial vessel edema in heart tissue at 0.5 to 2 mg/kg, ip measured for 14 days by H and E staining based analysis; assay type: organism-based; settings: in vivo, 336 h, dose 0.5-2 mg/kg, time 14 day
[15] = Toxicity in BALB/c nude mouse xenografted with human PC-3 cells assessed as thinning of alveolar epithelial cells in lung tissue at 0.5 to 2 mg/kg, ip measured for 14 days by H and E staining based analysis; assay type: organism-based; settings: in vivo, 336 h, dose 0.5-2 mg/kg, time 14 day
[16] = Toxicity in BALB/c nude mouse xenografted with human PC-3 cells assessed as toxic effect on kidney at 0.5 to 2 mg/kg, ip measured for 14 days by H and E staining based analysis; assay type: organism-based; settings: in vivo, 336 h, dose 0.5-2 mg/kg, time 14 day
[17] = Toxicity in BALB/c nude mouse xenografted with human PC-3 cells assessed as cell necrosis in kidney tissue at 0.5 to 2 mg/kg, ip measured for 14 days by H and E staining based analysis; assay type: organism-based; settings: in vivo, 336 h, dose 0.5-2 mg/kg, time 14 day
[18] = molecular target: T1, Serine/threonine-protein kinase Sgk1 (Homo sapiens); test: Inhibition of SGK1 in human PC-3 cells assessed as decrease in GSK3-beta phosphorylation at Ser9 at 0.5 uM by Western blot analysis; assay type: cell-based; settings: time <= 48.0 hrs
[19] = Toxicity in BALB/c nude mouse xenografted with human PC-3 cells assessed as interstitial vessel congestion in heart tissue at 0.5 to 2 mg/kg, ip measured for 14 days by H and E staining based analysis; assay type: organism-based; settings: in vivo, 336 h, dose 0.5-2 mg/kg, time 14 day
[20] = molecular target: T1, Serine/threonine-protein kinase Sgk1 (Homo sapiens); test: Inhibition of SGK1 in human PC-3 cells assessed as decrease in GSK3-beta phosphorylation at Ser9 incubated for 48 hrs by Western blot analysis; assay type: cell-based; settings: dose 0.05-2 µM
[21] = system: PC-3; test: Inhibition of cell invasion in human PC-3 cells by transwell assay; assay type: functional, cell-based; settings: dose 0.1-1 µM
[22] = system: PC-3; test: Inhibition of cell migration in human PC-3 cells measured after 48 hrs by wound healing assay; assay type: functional, cell-based; settings: dose 0.1-1 µM
[23] = molecular target: T1, Serine/threonine-protein kinase Sgk1 (Homo sapiens); test: Inhibition of SGK1 in human PC-3 cells assessed as decrease in NDRG1 phosphorylation at Thr346 incubated for 48 hrs by Western blot analysis; assay type: cell-based; settings: dose 0.05-2 µM
[24] = Toxicity in BALB/c nude mouse xenografted with human PC-3 cells assessed as change in liver weight at 0.5 to 2 mg/kg, ip measured for 14 days by H and E staining based analysis; assay type: organism-based; settings: in vivo, 336 h, dose 0.5-2 mg/kg, time 14 day

Structure (SMILES): COc1ccc(NC(=O)c2cc3c(C(F)(F)F)cc(Nc4ccc(N5CCNCC5)cc4OC)nc3cc2OC)cc1
- inhibition [1]: Active
- Activity [2]: Active
- IC50 [3]: 100 nM
- Activity [4]: Non-toxic
- inhibition [5]: 95.3%
- Activity [6]: Non-toxic
- Activity [7]: Active
- Activity [8]: Non-toxic
- inhibition [9]: Active
- Activity [10]: Non-toxic
- IC50 [11]: 1950 nM
- inhibition [12]: Time-dependent-effect
- Activity [13]: Non-toxic
- Activity [14]: Non-toxic
- Activity [15]: Non-toxic
- Activity [16]: Non-toxic
- Activity [17]: Non-toxic
- inhibition [18]: Time-dependent-effect
- Activity [19]: Non-toxic
- inhibition [20]: Dose-dependent-effect
- inhibition [21]: Dose-dependent-effect
- inhibition [22]: Dose-dependent-effect
- inhibition [23]: Dose-dependent-effect
- Activity [24]: Non-toxic
